From the CheMixHub viscosity set
± gives the uncertainty stated by the source.

Test: xn = mol fraction of the nth substance listed

NC=O + O
viscosity [mPa·s]
Details	101 kPa	101.33 kPa
293.15 K, x1 = 0.0753	1.098 ± 0.054	–
293.15 K, x1 = 0.1519	1.195 ± 0.058	–
293.15 K, x1 = 0.2309	1.318 ± 0.063	–
293.15 K, x1 = 0.2959	1.446 ± 0.068	–
293.15 K, x1 = 0.3852	1.603 ± 0.075	–
298.15 K, x1 = 0.00687	0.921 ± 0.18	–
298.15 K, x1 = 0.1	0.9871 ± 0.011	–
298.15 K, x1 = 0.1001	1.044 ± 0.018	–
298.15 K, x1 = 0.1998	1.161 ± 0.022	–
298.15 K, x1 = 0.2	1.121 ± 0.014	–
298.15 K, x1 = 0.212	1.182 ± 0.24	–
298.15 K, x1 = 0.3	1.262 ± 0.018	–
298.15 K, x1 = 0.3003	1.315 ± 0.029	–
298.15 K, x1 = 0.304	1.283 ± 0.26	–
298.15 K, x1 = 0.3989	1.463 ± 0.035	–
298.15 K, x1 = 0.4	1.43 ± 0.022	–
298.15 K, x1 = 0.4997	1.698 ± 0.046	–
298.15 K, x1 = 0.5	1.631 ± 0.028	–
298.15 K, x1 = 0.551	2.101 ± 0.42	–
298.15 K, x1 = 0.5997	1.927 ± 0.058	–
298.15 K, x1 = 0.6	1.868 ± 0.036	–
298.15 K, x1 = 0.6029	2.275 ± 0.46	–
298.15 K, x1 = 0.692	2.142 ± 0.069	–
298.15 K, x1 = 0.7	2.138 ± 0.045	–
298.15 K, x1 = 0.8	2.471 ± 0.056	–
298.15 K, x1 = 0.8004	2.508 ± 0.09	–
298.15 K, x1 = 0.9	2.881 ± 0.071	–
298.15 K, x1 = 0.9013	2.906 ± 0.11	–
303.15 K, x1 = 0.0964	–	0.8965 ± 0.0074
303.15 K, x1 = 0.1998	–	1.015 ± 0.0083
303.15 K, x1 = 0.2994	–	1.15 ± 0.0093
303.15 K, x1 = 0.3996	–	1.298 ± 0.01
303.15 K, x1 = 0.4999	–	1.474 ± 0.012
303.15 K, x1 = 0.5995	–	1.662 ± 0.014
303.15 K, x1 = 0.6999	–	1.878 ± 0.016
303.15 K, x1 = 0.8001	–	2.139 ± 0.018
303.15 K, x1 = 0.9	–	2.432 ± 0.021
308.15 K, x1 = 0.0964	–	0.8135 ± 0.0068
308.15 K, x1 = 0.1	0.8181 ± 0.0093	–
308.15 K, x1 = 0.1998	–	0.9213 ± 0.0076
308.15 K, x1 = 0.2	0.9244 ± 0.012	–
308.15 K, x1 = 0.2994	–	1.047 ± 0.0086
308.15 K, x1 = 0.3	1.047 ± 0.015	–
308.15 K, x1 = 0.3996	–	1.182 ± 0.0096
308.15 K, x1 = 0.4	1.183 ± 0.018	–
308.15 K, x1 = 0.4999	–	1.34 ± 0.011
308.15 K, x1 = 0.5	1.342 ± 0.023	–
308.15 K, x1 = 0.5995	–	1.506 ± 0.012
308.15 K, x1 = 0.6	1.523 ± 0.029	–
308.15 K, x1 = 0.6999	–	1.697 ± 0.014
308.15 K, x1 = 0.7	1.731 ± 0.036	–
308.15 K, x1 = 0.8	2.002 ± 0.045	–
308.15 K, x1 = 0.8001	–	1.926 ± 0.016
308.15 K, x1 = 0.9	2.307 ± 0.057	2.18 ± 0.019
313.15 K, x1 = 0.0964	–	0.7424 ± 0.0063
313.15 K, x1 = 0.1001	0.734 ± 0.008	–
313.15 K, x1 = 0.1998	0.835 ± 0.011	0.8455 ± 0.0071
313.15 K, x1 = 0.2994	–	0.9584 ± 0.0079
313.15 K, x1 = 0.3003	0.949 ± 0.015	–
313.15 K, x1 = 0.3989	1.091 ± 0.02	–
313.15 K, x1 = 0.3996	–	1.08 ± 0.0089
313.15 K, x1 = 0.4997	1.23 ± 0.026	–
313.15 K, x1 = 0.4999	–	1.221 ± 0.01
313.15 K, x1 = 0.5995	–	1.373 ± 0.011
313.15 K, x1 = 0.5997	1.402 ± 0.033	–
313.15 K, x1 = 0.692	1.545 ± 0.04	–
313.15 K, x1 = 0.6999	–	1.543 ± 0.013
313.15 K, x1 = 0.8001	–	1.746 ± 0.015
313.15 K, x1 = 0.8004	1.813 ± 0.053	–
313.15 K, x1 = 0.9	–	1.967 ± 0.017
313.15 K, x1 = 0.9013	2.102 ± 0.068	–
318.15 K, x1 = 0.0964	–	0.6812 ± 0.0059
318.15 K, x1 = 0.1	0.6761 ± 0.0079	–
318.15 K, x1 = 0.1998	–	0.7768 ± 0.0066
318.15 K, x1 = 0.2	0.7811 ± 0.01	–
318.15 K, x1 = 0.2994	–	0.8815 ± 0.0074
318.15 K, x1 = 0.3	0.8781 ± 0.012	–
318.15 K, x1 = 0.3996	–	0.993 ± 0.0083
318.15 K, x1 = 0.4	0.9948 ± 0.016	–
318.15 K, x1 = 0.4999	–	1.121 ± 0.0093
318.15 K, x1 = 0.5	1.12 ± 0.019	–
318.15 K, x1 = 0.5995	–	1.259 ± 0.011
318.15 K, x1 = 0.6	1.259 ± 0.024	–
318.15 K, x1 = 0.6999	–	1.409 ± 0.012
318.15 K, x1 = 0.7	1.42 ± 0.03	–
318.15 K, x1 = 0.8	1.604 ± 0.037	–
318.15 K, x1 = 0.8001	–	1.59 ± 0.014
318.15 K, x1 = 0.9	1.812 ± 0.045	1.788 ± 0.016
323.15 K, x1 = 0.0964	–	0.6275 ± 0.0055
323.15 K, x1 = 0.1998	–	0.7165 ± 0.0062
323.15 K, x1 = 0.2994	–	0.8121 ± 0.0069
323.15 K, x1 = 0.3996	–	0.9187 ± 0.0077
323.15 K, x1 = 0.4999	–	1.032 ± 0.0087
323.15 K, x1 = 0.5995	–	1.158 ± 0.0098
323.15 K, x1 = 0.6999	–	1.292 ± 0.011
323.15 K, x1 = 0.8001	–	1.457 ± 0.013
323.15 K, x1 = 0.9	–	1.629 ± 0.014
